Laboratory results taken from publication PMC8192883, “Novel 1,2,4-oxadiazole derivatives as selective butyrylcholinesterase inhibitors: Design, synthesis and biological evaluation” (EXCLI Journal, 2021).
Where two headings read alike, the source gives them in different places.

What was measured:
[1] = target: T1, AChE (E.C. 3.1.1.7, type V-S) (Electrophorus electricus, UniProt O42275); experiment: biochemical; conditions: Ellman's method, electric eel AChE, mean ± SD
T1 construct: purchased Sigma-Aldrich type V-S (catalogue number not given); host or cells: electric eel (natural source)
Protocol: (§1) The inhibitory activity of the designed compounds against BuChE and AChE was evaluated using Ellman's method. […] AChE (E.C. 3.1.1.7, type V-S, lyophilized powder, from the electric eel, 1000 units) and BuChE (E.C. 3.1.1.8, from equine serum), acetylthiocholine iodide (ATCI), butyrylthiocholine iodide (BTCI), and 5,5-dithiobis-(2-nitrobenzoic acid) (DTNB) were all acquired from Sigma-Aldrich. Potassium dihydrogen phosphate, dipotassium hydrogen phosphate, potassium hydroxide, and sodium hydrogen carbonate were obtained from Fluka. […] In this regard, each one of the wells included a 50 µL potassium phosphate buffer, 25 µL sample dissolved in 50 % methanol and 50 % DMSO, and 25 µL enzyme (the final concentration 0.22 U/mL in buffer). Thereafter, the wells were pre-incubated for 15 min at room temperature, and 125 µL DTNB (3 mM in buffer) was added to each plate. […] As well, the IC50 values were expressed as mean ± SD. The percentage of enzyme's inhibition was calculated by comparing with a blank sample (100 % activity). The described method was also used for the BuChE inhibition assay.

BuChE (E.C. 3.1.1.8) = target: T2, BuChE (E.C. 3.1.1.8) (Equus caballus, UniProt P81908); experiment: biochemical; conditions: for IC50: Ellman's method, equine serum BuChE, mean ± SD; for SI (selectivity towards BuChE): SI ratio, values match IC50 AChE / IC50 BuChE
T2 construct: purchased Sigma-Aldrich; host or cells: equine serum (natural source)
Protocol: as §1

AChE = test system: AChE; set-up: method as in earlier work; conditions: Figure 2, known inhibitors, ref Wajid et al., 2019, Wu et al., de Andrade et al., Joubert and Kapp, 2020; cited from earlier work
BuChE = conditions: ref Wajid et al., 2019, Wu et al., cited from earlier work
[2] = Figure 2, known inhibitors, de Andrade et al., Joubert and Kapp, 2020

T2 sequence (P81908 whole entry): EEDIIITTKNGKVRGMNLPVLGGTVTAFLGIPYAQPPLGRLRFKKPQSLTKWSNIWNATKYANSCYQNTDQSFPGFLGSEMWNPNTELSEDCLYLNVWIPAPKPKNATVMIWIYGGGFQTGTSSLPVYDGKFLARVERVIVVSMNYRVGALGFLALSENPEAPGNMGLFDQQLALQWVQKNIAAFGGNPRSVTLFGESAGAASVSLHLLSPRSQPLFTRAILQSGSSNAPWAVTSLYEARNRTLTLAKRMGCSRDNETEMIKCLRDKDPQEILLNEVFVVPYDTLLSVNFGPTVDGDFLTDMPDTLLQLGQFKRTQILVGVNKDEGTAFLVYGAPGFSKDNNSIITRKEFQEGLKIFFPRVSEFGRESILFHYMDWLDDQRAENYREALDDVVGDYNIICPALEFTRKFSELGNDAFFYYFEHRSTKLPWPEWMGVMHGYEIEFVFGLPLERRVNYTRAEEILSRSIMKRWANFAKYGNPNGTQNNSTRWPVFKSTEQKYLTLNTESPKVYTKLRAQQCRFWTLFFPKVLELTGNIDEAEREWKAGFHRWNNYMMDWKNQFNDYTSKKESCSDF
T1 sequence (O42275 24-633): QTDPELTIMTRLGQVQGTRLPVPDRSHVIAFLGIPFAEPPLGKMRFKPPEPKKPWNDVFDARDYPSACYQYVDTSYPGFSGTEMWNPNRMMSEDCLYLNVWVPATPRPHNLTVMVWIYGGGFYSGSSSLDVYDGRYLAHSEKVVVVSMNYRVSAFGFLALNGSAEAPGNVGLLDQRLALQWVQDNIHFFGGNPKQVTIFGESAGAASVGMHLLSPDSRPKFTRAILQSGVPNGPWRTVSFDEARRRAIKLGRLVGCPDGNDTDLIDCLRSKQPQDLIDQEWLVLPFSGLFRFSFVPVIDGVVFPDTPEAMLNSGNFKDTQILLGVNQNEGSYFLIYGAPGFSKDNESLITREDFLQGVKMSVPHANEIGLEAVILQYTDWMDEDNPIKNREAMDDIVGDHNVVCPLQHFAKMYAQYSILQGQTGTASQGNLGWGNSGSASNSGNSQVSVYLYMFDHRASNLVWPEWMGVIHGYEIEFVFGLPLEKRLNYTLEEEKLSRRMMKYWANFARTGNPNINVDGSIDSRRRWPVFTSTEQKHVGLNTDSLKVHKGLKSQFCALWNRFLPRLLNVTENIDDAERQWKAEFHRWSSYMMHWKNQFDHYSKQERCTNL

| SMILES | IC50 [1] | IC50 (BuChE (E.C. 3.1.1.8)) | SI (selectivity towards BuChE) (BuChE (E.C. 3.1.1.8)) | further results |
| --- | --- | --- | --- | --- |
| c1ccc(CN2CCC(c3nc(-c4ccccc4)no3)CC2)cc1 [6a, 5-(1-benzylpiperidin-4-yl)-3-phenyl-1,2,4-oxadiazole] | 35.5 µM | 14.2 µM | 2.49 |  |
| Cc1ccc(-c2noc(C3CCN(Cc4ccccc4)CC3)n2)cc1 [6b, 5-(1-benzylpiperidin-4-yl)-3-(p-tolyl)-1,2,4-oxadiazole] | > 100 µM | 9.81 µM | > 10.19 |  |
| Clc1ccc(-c2noc(C3CCN(Cc4ccccc4)CC3)n2)cc1 [6c, 5-(1-benzylpiperidin-4-yl)-3-(4-chlorophenyl)-1,2,4-oxadiazole] | > 100 µM | > 100 µM |  |  |
| Fc1ccc(-c2noc(C3CCN(Cc4ccccc4)CC3)n2)cc1 [6d, 5-(1-benzylpiperidin-4-yl)-3-(4-fluorophenyl)-1,2,4-oxadiazole] | 21.16 ± 0.13 µM | 24.8 ± 0.97 µM | 0.85 |  |
| Fc1ccc(CN2CCC(c3nc(-c4ccccc4)no3)CC2)cc1 [6e, 5-(1-(4-fluorobenzyl)piperidin-4-yl)-3-phenyl-1,2,4-oxadiazole] | > 100 µM | > 100 µM |  |  |
| Cc1ccc(-c2noc(C3CCN(Cc4ccc(F)cc4)CC3)n2)cc1 [6f, 5-(1-(4-fluorobenzyl)piperidin-4-yl)-3-(p-tolyl)-1,2,4-oxadiazole] | > 100 µM | 50.7 ± 0.06 µM | > 1.97 |  |
| Fc1ccc(CN2CCC(c3nc(-c4ccc(Cl)cc4)no3)CC2)cc1 [6g, 3-(4-chlorophenyl)-5-(1-(4-fluorobenzyl)piperidin-4-yl)-1,2,4-oxadiazole] | > 100 µM | > 100 µM |  |  |
| Fc1ccc(CN2CCC(c3nc(-c4ccc(F)cc4)no3)CC2)cc1 [6h, 5-(1-(4-fluorobenzyl)piperidin-4-yl)-3-(4-fluorophenyl)-1,2,4-oxadiazole] | > 100 µM | > 100 µM |  |  |
| Clc1ccc(CN2CCC(c3nc(-c4ccccc4)no3)CC2)cc1 [6i, 5-(1-(4-chlorobenzyl)piperidin-4-yl)-3-phenyl-1,2,4-oxadiazole] | > 100 µM | > 100 µM |  |  |
| Cc1ccc(-c2noc(C3CCN(Cc4ccc(Cl)cc4)CC3)n2)cc1 [6j, 5-(1-(4-chlorobenzyl)piperidin-4-yl)-3-(p-tolyl)-1,2,4-oxadiazole] | > 100 µM | 50.3 ± 0.77 µM | > 1.98 |  |
| Clc1ccc(CN2CCC(c3nc(-c4ccc(Cl)cc4)no3)CC2)cc1 [6k, 5-(1-(4-chlorobenzyl)piperidin-4-yl)-3-(4-chlorophenyl)-1,2,4-oxadiazole] | > 100 µM | > 100 µM |  |  |
| Fc1ccc(-c2noc(C3CCN(Cc4ccc(Cl)cc4)CC3)n2)cc1 [6l, 5-(1-(4-chlorobenzyl)piperidin-4-yl)-3-(4-fluorophenyl)-1,2,4-oxadiazole] | > 100 µM | > 100 µM |  |  |
| Clc1ccccc1CN1CCC(c2nc(-c3ccccc3)no2)CC1 [6m, 5-(1-(2-chlorobenzyl)piperidin-4-yl)-3-phenyl-1,2,4-oxadiazole] | > 100 µM | > 100 µM |  |  |
| Cc1ccc(-c2noc(C3CCN(Cc4ccccc4Cl)CC3)n2)cc1 [6n, 5-(1-(2-chlorobenzyl)piperidin-4-yl)-3-(p-tolyl)-1,2,4-oxadiazole] | > 100 µM | 5.07 µM | greater than 19.72 |  |
| Clc1ccc(-c2noc(C3CCN(Cc4ccccc4Cl)CC3)n2)cc1 [6o, 5-(1-(2-chlorobenzyl)piperidin-4-yl)-3-(4-chlorophenyl)-1,2,4-oxadiazole] | > 100 µM | 81.2 ± 0.98 µM | > 1.23 |  |
| Fc1ccc(-c2noc(C3CCN(Cc4ccccc4Cl)CC3)n2)cc1 [6p, 5-(1-(2-chlorobenzyl)piperidin-4-yl)-3-(4-fluorophenyl)-1,2,4-oxadiazole] | > 100 µM | > 100 µM |  |  |
| Cc1ccc(CN2CCC(c3nc(-c4ccccc4)no3)CC2)cc1 [6q, 5-(1-(4-methylbenzyl)piperidin-4-yl)-3-phenyl-1,2,4-oxadiazole] | > 100 µM | > 100 µM |  |  |
| Cc1ccc(CN2CCC(c3nc(-c4ccc(C)cc4)no3)CC2)cc1 [6r, 5-(1-(4-methylbenzyl)piperidin-4-yl)-3-(p-tolyl)-1,2,4-oxadiazole] | > 100 µM | 62.8 ± 0.65 µM | > 1.59 |  |
| Cc1ccc(CN2CCC(c3nc(-c4ccc(Cl)cc4)no3)CC2)cc1 [6s, 3-(4-chlorophenyl)-5-(1-(4-methylbenzyl)piperidin-4-yl)-1,2,4-oxadiazole] | > 100 µM | > 100 µM |  |  |
| Cc1ccc(CN2CCC(c3nc(-c4ccc(F)cc4)no3)CC2)cc1 [6t, 3-(4-fluorophenyl)-5-(1-(4-methylbenzyl)piperidin-4-yl)-1,2,4-oxadiazole] | > 100 µM | > 100 µM |  |  |
| CCCCCCCNC(=O)Oc1cccc(-c2coc3c4c(ccc3c2=O)OC(C)(C)C=C4)c1F [compound 1] |  |  |  | IC50 (AChE): 297 µM; IC50 (BuChE; [2]): 0.222 µM |
| O=C(Nc1c(Cl)cccc1Cl)c1ccc(Br)cc1 [compound 2] |  |  |  | AChE IC50 (AChE): inactive; IC50 (BuChE; Figure 2, known inhibitor): 0.8 µM |
| CC(=O)N[C@@H](Cn1cc(-c2ccccc2)nn1)C(=O)NCC1CCN(Cc2ccccc2)CC1 [compound 3] |  |  |  | IC50 (AChE): > 10 µM; IC50 (BuChE; [2]): 0.00017 µM |
| COc1cc(C2C3=C(CCCC3=O)NC3=C2C(=O)CCC3)ccc1OCc1ccc(F)cc1 [compound 4] |  |  |  | IC50 (AChE): 125 µM; IC50 (BuChE; [2]): 0.098 µM |
